As usually defined, the IC50 is the concentration that gives 50% inhibition. Read a low IC50 as greater potency. As usually defined, the MIC is the least concentration at which growth counts as inhibited.

Results on seven compounds are retold here after paper PMC5148682 (European journal of medicinal chemistry, 2016).

One assay addresses E. coli topoisomerase I (Escherichia coli, UniProt P06612). Kind of assay: E. coli topoisomerase I relaxation activity inhibition assay. Type of assay: biochemical.
The next assay concerns the target T1, Human topoisomerase I (Homo sapiens, UniProt P11387).
T1 sequence (P11387 1-765): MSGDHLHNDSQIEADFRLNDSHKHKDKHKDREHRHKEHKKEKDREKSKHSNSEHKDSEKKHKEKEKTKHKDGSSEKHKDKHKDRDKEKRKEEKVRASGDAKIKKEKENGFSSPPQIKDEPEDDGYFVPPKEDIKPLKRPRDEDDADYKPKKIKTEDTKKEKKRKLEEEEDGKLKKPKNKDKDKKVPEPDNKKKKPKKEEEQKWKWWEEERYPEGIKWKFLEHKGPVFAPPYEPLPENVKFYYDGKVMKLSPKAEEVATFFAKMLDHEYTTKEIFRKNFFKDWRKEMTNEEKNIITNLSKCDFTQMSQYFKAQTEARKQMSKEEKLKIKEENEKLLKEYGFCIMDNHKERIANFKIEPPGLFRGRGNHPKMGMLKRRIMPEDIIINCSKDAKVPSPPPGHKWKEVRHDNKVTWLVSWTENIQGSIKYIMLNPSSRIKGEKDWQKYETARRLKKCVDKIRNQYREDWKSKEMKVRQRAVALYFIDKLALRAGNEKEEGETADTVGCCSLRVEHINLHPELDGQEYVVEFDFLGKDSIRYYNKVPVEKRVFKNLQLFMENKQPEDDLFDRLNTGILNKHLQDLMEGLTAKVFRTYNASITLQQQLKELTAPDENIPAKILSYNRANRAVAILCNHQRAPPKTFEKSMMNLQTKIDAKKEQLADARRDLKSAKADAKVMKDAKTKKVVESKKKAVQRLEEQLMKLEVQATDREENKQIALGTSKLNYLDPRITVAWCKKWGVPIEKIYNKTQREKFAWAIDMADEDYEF
Kind of assay: Human topoisomerase I relaxation inhibition assay. The class given is biochemical.

Another assay deals with M tuberculosis (H37Rv). Put plainly: MIC by modified microplate Alamar blue assay. Type of assay: cell-based. For orientation: Resazurin is reduced to fluorescent resorufin, in cell work by metabolically active cells.
The next assay has as its system E. coli (MG1655) WT. Put plainly: MIC by broth microdilution, wild-type E. coli. The conditions noted are these: Escherichia coli, MG1655, read-out: Whole cell based antibacterial activity (MIC, µM) E. coli (MG1655) WT.

Molecules are shown by their SMILES.

Chain of E. coli topoisomerase I (P06612 whole entry): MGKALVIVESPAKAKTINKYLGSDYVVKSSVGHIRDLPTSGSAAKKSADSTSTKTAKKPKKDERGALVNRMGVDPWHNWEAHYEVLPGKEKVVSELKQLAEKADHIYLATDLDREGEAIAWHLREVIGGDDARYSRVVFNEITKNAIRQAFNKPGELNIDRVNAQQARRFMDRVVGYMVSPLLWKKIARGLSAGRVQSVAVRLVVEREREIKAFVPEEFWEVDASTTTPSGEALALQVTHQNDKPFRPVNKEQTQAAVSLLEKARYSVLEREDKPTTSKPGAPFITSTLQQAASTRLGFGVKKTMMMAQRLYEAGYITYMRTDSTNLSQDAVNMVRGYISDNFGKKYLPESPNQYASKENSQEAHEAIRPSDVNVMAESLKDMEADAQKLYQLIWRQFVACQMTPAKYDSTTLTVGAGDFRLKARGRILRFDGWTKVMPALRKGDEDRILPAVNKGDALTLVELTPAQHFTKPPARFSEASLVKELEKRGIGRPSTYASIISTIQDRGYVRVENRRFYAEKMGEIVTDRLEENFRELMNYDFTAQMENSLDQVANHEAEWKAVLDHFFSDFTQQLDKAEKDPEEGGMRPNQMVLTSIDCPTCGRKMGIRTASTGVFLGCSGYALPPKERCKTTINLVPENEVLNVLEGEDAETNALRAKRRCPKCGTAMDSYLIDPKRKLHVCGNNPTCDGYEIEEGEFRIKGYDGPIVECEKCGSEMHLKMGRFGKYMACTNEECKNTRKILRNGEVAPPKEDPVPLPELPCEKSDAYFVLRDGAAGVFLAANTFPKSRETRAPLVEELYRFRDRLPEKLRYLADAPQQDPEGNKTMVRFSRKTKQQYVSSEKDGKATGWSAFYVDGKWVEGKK

Turning to `CCOC(=O)c1cn2c3c(c(F)c(F)cc3c1=O)Oc1cc(C(F)(F)F)ccc1-2` [Compound 6c, Ethyl 5,6-difluoro-3-oxo-9-(trifluoromethyl)-3H–pyrido[3,2,1-kl]phenoxazine-2-carboxylate], at E. coli topoisomerase I (pIC50, experimental, pIC50 = – logIC50, E. coli topoisomerase I), the IC50 is greater than 125 µM.

For `O=C(O)c1cn2c3c(c(F)c(F)cc3c1=O)Oc1cc(C(F)(F)F)ccc1-2` [Compound 7c, 5,6-Difluoro-3-oxo-9-(trifluoromethyl)-3H–pyrido[3,2,1-kl]phenoxazine-2-carboxylic acid], the IC50 at E. coli topoisomerase I (IC50 (µM), E. coli topoisomerase I, value as used in the CoMFA dataset (Table 2)) is greater than 125 µM.

In the case of `CC(=O)c1ccc2c(c1)Oc1c(F)c(F)cc3c(=O)c(C(=O)O)cn-2c13` [Compound 7d, 9-Acetyl-5,6-difluoro-3-oxo-3H–pyrido[3,2,1-kl] phenoxazine-2-carboxylic acid], the “fold less active than 1 against E. coli topoisomerase I” value at E. coli topoisomerase I was 8–16 fold.

As for `O=C(O)c1cn2c3c(c(F)c(F)cc3c1=O)Oc1cc([N+](=O)[O-])c(Cl)cc1-2` [Compound 7e, 10-Chloro-5,6-difluoro-9-nitro-3-oxo-3H–pyrido[3,2,1-kl]phenoxazine-2-carboxylic acid], the “fold less active than 1 against E. coli topoisomerase I” value on E. coli topoisomerase I is on record as 8–16 fold.

`Nc1ccc2c(c1)Oc1c(NCCN3CCOCC3)c(F)cc3c(=O)c(C(=O)O)cn-2c13` [Compound 11h, 9-Amino-5-fluoro-6-((2-morpholinoethyl)amino)-3-oxo-3H–pyrido[3,2,1-kl]phenoxazine-2-carboxylic acid] gave an IC50 on Human topoisomerase I of 7.8 to 15.6 µM.

For `Nc1ccc2c(c1)Oc1c(N3CC[C@H](N)C3)c(F)cc3c(=O)c(C(=O)O)cn-2c13` [Compound 17a, (S)-9-amino-6-(3-aminopyrrolidin-1-yl)-5-fluoro-3-oxo-3H–pyrido[3,2,1-kl]phenoxazine-2-carboxylic acid], in the assay with M tuberculosis (H37Rv) (MABA), the “Whole cell based antibacterial activity (MIC, µM) M tuberculosis (H37Rv)” value was greater than 63.1 µM. For the same compound, in the assay on M tuberculosis (H37Rv) (Mycobacterium tuberculosis, H37RV, read-out: Whole cell based antibacterial activity (MIC, µM) M tuberculosis (H37Rv)), the MIC is greater than 63.1 µM.

In the case of `Nc1ccc2c(c1)Oc1c(N3CC[C@@H](N)C3)c(F)cc3c(=O)c(C(=O)O)cn-2c13` [Compound 17b, (R)-9-amino-6-(3-aminopyrrolidin-1-yl)-5-fluoro-3-oxo-3H–pyrido[3,2,1-kl]phenoxazine-2-carboxylic acid], the MIC in the assay with E. coli (MG1655) WT is greater than 200 µM.
